Patent US20120122860A1, “SOLID FORMS OF SULFONAMIDES AND AMINO ACIDS” (Plexxikon, Inc., priority 2009, published 2012)

How the values were obtained:
B-Raf = B-Raf (Homo sapiens, UniProt P15056); assay: Kinase activity assay, B-Raf; format: biochemical; conditions: read-out: activity toward kinase B-Raf, IC50
Fms = Fms (Homo sapiens, UniProt P07333); assay: Kinase activity assay, Fms
A-Raf = biological target: T1, A-Raf (Homo sapiens, UniProt P10398); assay: Kinase activity assay, A-Raf
T1 sequence (P10398 1-606): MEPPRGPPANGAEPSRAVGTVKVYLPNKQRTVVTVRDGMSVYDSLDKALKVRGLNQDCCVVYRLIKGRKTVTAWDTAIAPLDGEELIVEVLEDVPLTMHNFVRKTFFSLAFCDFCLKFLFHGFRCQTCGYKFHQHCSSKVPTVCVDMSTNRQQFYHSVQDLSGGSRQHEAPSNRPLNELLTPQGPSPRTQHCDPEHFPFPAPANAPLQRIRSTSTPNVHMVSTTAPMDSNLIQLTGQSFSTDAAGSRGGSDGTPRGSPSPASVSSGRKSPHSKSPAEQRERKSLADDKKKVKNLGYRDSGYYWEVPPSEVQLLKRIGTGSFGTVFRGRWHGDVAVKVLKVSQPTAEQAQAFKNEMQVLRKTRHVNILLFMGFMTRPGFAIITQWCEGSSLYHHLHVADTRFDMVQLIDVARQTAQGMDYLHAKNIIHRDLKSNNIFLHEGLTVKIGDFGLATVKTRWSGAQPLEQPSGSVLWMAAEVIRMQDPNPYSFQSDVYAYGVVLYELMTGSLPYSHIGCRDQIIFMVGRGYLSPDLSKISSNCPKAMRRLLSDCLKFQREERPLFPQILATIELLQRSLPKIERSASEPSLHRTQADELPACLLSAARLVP

Kdr = Kdr (Homo sapiens, UniProt P35968); assay: Kinase activity assay, Kdr
Chain of Kdr (P35968 20-1356): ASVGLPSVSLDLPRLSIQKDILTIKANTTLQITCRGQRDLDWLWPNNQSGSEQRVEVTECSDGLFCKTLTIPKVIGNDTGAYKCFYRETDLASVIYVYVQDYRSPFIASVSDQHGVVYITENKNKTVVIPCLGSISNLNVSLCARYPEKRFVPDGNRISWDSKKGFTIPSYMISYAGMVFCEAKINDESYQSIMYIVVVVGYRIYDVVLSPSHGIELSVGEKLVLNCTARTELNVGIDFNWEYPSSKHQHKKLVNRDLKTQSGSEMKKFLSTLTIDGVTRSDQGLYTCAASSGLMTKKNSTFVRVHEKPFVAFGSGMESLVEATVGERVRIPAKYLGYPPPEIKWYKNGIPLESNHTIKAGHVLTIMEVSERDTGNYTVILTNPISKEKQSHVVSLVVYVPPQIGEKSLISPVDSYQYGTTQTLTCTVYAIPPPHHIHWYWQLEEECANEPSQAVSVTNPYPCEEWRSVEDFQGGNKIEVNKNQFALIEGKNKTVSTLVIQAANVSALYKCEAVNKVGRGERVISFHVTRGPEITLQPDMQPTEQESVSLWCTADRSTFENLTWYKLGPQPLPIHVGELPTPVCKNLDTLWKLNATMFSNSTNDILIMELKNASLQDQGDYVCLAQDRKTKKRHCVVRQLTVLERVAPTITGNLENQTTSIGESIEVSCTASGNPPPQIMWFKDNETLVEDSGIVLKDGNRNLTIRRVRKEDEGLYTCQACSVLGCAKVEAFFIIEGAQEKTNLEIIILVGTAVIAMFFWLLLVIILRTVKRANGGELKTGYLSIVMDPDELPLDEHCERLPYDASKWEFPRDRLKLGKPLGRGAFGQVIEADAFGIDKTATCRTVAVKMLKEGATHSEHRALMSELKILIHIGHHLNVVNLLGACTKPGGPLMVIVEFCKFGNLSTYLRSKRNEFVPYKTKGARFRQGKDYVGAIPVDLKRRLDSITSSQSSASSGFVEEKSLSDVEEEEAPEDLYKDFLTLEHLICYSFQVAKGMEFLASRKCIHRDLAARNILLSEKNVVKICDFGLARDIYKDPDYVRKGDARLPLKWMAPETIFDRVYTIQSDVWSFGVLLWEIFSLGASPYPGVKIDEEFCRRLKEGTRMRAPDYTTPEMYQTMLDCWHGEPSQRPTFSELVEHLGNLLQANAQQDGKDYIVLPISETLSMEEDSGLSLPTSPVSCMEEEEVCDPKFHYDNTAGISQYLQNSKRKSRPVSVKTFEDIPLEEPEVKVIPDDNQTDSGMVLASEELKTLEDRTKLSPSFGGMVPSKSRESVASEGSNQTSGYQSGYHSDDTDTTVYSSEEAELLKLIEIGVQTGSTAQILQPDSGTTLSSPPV

Kit = Kit (Homo sapiens, UniProt P10721); assay: Kinase activity assay, Kit
Chain of Kit (P10721 26-976): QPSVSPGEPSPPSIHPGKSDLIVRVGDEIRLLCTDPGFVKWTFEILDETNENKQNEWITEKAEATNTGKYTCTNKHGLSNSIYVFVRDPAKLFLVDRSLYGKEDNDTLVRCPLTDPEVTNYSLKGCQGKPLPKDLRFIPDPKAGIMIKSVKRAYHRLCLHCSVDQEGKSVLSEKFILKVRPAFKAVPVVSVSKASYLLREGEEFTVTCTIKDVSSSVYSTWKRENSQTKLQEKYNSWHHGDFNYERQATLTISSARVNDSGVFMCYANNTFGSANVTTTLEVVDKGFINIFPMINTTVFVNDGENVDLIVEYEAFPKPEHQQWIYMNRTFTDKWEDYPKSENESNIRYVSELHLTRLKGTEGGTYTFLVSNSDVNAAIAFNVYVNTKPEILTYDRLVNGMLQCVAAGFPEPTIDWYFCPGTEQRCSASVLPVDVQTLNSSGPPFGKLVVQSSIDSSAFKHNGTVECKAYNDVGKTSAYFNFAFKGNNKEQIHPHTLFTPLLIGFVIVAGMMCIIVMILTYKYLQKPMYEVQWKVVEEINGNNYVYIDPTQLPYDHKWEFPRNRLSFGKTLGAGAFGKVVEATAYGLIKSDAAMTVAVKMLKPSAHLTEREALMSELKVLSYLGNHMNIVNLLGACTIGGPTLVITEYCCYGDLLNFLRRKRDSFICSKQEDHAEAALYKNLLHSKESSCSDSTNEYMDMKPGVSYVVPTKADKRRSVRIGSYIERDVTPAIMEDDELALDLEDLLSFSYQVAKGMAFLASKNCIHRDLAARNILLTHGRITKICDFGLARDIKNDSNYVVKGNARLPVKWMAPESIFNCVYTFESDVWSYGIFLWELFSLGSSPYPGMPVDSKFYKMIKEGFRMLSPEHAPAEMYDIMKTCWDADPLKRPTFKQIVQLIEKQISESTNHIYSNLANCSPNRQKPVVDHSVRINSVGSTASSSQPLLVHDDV

C-Raf = C-Raf (Homo sapiens, UniProt P04049); assay: Kinase activity assay, C-Raf
B-Raf V600E = B-Raf V600E (Homo sapiens, UniProt P15056, V600E); assay: Kinase activity assay, B-Raf V600E; format: biochemical; conditions: read-out: activity toward kinase B-Raf V600E, IC50
Chain of B-Raf V600E (P15056 whole entry V600E): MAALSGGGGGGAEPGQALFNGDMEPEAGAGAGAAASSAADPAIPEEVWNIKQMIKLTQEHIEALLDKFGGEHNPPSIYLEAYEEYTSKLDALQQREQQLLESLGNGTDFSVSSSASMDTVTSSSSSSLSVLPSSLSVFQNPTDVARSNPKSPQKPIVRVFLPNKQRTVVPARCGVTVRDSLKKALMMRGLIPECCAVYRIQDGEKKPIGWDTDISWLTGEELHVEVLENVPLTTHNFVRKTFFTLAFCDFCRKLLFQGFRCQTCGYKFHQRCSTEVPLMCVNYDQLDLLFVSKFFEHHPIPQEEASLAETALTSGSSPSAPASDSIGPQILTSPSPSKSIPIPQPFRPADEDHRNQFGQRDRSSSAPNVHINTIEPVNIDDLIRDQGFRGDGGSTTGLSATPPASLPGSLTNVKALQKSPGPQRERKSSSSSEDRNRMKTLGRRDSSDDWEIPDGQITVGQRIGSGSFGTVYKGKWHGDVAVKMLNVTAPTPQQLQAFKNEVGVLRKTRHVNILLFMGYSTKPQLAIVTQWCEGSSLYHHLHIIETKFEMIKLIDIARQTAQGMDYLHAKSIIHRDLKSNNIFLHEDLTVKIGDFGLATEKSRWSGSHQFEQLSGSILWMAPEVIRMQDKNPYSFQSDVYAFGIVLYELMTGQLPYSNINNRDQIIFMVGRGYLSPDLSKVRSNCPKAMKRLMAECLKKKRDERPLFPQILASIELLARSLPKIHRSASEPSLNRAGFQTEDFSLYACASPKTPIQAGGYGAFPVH

Src = Src (Homo sapiens, UniProt P12931); assay: Kinase activity assay, Src
Chain of Src (P12931 whole entry): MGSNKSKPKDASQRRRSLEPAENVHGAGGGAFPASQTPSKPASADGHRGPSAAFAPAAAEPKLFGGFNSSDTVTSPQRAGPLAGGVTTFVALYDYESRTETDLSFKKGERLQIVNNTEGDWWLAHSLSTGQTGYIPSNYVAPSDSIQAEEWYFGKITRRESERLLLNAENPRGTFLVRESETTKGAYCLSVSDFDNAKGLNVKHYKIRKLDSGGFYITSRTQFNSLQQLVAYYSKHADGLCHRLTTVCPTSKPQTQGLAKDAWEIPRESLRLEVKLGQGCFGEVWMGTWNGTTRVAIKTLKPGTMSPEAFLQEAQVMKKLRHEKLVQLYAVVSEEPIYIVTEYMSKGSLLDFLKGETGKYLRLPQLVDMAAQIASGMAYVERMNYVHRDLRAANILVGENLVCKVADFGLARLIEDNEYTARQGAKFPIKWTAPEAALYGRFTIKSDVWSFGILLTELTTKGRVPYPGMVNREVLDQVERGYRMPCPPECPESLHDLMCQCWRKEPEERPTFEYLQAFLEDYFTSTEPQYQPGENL

Measured: IC50

Chain of B-Raf (P15056 whole entry): as the sequence (P15056 whole entry V600E) above, with E600V counted along it
Chain of Fms (P07333 20-972): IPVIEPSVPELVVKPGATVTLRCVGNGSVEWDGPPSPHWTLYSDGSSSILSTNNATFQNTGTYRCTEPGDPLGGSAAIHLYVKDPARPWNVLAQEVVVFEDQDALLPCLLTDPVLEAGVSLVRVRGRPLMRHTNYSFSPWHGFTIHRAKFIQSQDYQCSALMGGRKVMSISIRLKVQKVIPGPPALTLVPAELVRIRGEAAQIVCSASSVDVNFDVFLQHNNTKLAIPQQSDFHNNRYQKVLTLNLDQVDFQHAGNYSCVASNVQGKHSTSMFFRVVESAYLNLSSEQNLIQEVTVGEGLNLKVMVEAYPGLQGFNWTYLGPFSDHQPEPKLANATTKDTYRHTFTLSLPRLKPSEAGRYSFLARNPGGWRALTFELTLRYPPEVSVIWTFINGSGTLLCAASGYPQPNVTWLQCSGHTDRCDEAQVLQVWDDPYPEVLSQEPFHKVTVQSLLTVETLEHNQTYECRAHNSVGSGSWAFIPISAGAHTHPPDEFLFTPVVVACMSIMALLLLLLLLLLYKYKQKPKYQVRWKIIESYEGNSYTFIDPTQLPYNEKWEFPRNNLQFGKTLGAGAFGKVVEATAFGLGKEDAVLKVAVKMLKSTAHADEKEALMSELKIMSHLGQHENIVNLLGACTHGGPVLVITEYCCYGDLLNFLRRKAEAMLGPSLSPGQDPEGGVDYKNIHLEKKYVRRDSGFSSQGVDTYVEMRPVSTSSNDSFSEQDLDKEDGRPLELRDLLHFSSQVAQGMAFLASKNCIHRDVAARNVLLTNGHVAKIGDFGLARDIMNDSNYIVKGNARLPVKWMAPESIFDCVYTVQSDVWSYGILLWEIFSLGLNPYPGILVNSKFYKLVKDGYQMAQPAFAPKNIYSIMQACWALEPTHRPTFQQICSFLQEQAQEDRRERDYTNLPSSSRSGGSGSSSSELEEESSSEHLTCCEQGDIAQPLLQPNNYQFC

O=C(c1cc(NS(=O)(=O)c2ccc(Cl)cc2)ccc1F)c1c[nH]c2ncccc12 [P-2113, 4-Chloro-N-[4-fluoro-3-(1H-pyrrolo[2,3-b]pyridine-3-carbonyl)-phenyl]-benzenesulfonamide]
≤ 10 µM: B-Raf | Fms | A-Raf | Kdr | Kit

O=C(c1cc(NS(=O)(=O)c2cccc(C(F)(F)F)c2)ccc1F)c1c[nH]c2ncccc12 [P-2115, N-[4-Fluoro-3-(1H-pyrrolo[2,3-b]pyridine-3-carbonyl)-phenyl]-3-trifluoromethyl-benzenesulfonamide]
≤ 10 µM: Fms | A-Raf | Kdr | Kit

O=C(c1cc(NS(=O)(=O)c2ccc(OC(F)(F)F)cc2)ccc1F)c1c[nH]c2ncccc12 [P-2116, N-[4-Fluoro-3-(1H-pyrrolo[2,3-b]pyridine-3-carbonyl)-phenyl]-4-trifluoromethoxy-benzenesulfonamide]
≤ 10 µM: B-Raf | Fms | C-Raf | A-Raf | Kit

CCCS(=O)(=O)Nc1ccc(F)c(C(=O)c2c[nH]c3ncc(C(=O)NOC)cc23)c1F [P-2238, 3-[2,6-Difluoro-3-(propane-1-sulfonylamino)-benzoyl]-1H-pyrrolo[2,3-b]pyridine-5-carboxylic acid methoxy-amide]
not listed: Fms
≤ 10 µM: all other assays above

CC(C)CS(=O)(=O)Nc1ccc(F)c(C(=O)c2c[nH]c3ncc(-c4ccc(Cl)cc4)cc23)c1F [P-2297, 2-Methyl-propane-1-sulfonic acid {3-[5-(4-chloro-phenyl)-1H-pyrrolo[2,3-b]pyridine-3-carbonyl]-2,4-difluoro-phenyl}-amide]
≤ 10 µM: Fms | C-Raf | A-Raf | Kit

COc1cnc2[nH]cc(C(=O)c3c(F)ccc(NS(=O)(=O)CC(C)C)c3F)c2c1 [P-2303, 2-Methyl-propane-1-sulfonic acid [2,4-difluoro-3-(5-methoxy-1H-pyrrolo[2,3-b]pyridine-3-carbonyl)-phenyl]-amide]
not listed: Fms
≤ 10 µM: all other assays above

Cc1cnc2[nH]cc(C(=O)c3c(F)ccc(NS(=O)(=O)CC(C)C)c3F)c2c1 [P-2305, 2-Methyl-propane-1-sulfonic acid [2,4-difluoro-3-(5-methyl-1H-pyrrolo[2,3-b]pyridine-3-carbonyl)-phenyl]-amide]
not listed: Fms
≤ 10 µM: all other assays above

COc1cnc2[nH]cc(C(=O)c3c(F)ccc(NS(=O)(=O)N4CCCC4)c3F)c2c1 [P-2374, Pyrrolidine-1-sulfonic acid [2,4-difluoro-3-(5-methoxy-1H-pyrrolo[2,3-b]pyridine-3-carbonyl)-phenyl]-amide]
not listed: Fms
≤ 10 µM: all other assays above

O=C(c1c(F)ccc(NS(=O)(=O)N2CCCC2)c1F)c1c[nH]c2nccc(Cl)c12 [P-2398, Pyrrolidine-1-sulfonic acid [3-(4-chloro-1H-pyrrolo[2,3-b]pyridine-3-carbonyl)-2,4-difluoro-phenyl]-amide]
not listed: Fms
≤ 10 µM: all other assays above

CCCS(=O)(=O)Nc1ccc(F)c(C(=O)c2c[nH]c3ncccc23)c1 [P-2437, Propane-1-sulfonic acid [4-fluoro-3-(1H-pyrrolo[2,3-b]pyridine-3-carbonyl)-phenyl]-amide]
≤ 10 µM: B-Raf V600E | Fms | A-Raf | Kdr
